What was measured:
[1] = Food effect of tolperisone: open-label, single dose, 4-way crossover pharmacokinetic study in healthy male volunteers; conditions: for AUC0-oo / AUC0-tlast / Cmax / Tmax / t1/2 / λz: 150 mg single oral dose, plasma, mean ± SD
Procedure: The study was designed as an open-label, single dose, 4-way crossover study in 24 healthy male subjects. Randomization was performed according to the Latin Square Block design. Six subjects each were distributed to the four treatment arms. Each subject completed the study having received a single dose of 150 mg, 300 mg, and 450 mg of tolperisone once daily in a fasted state, and 150 mg of tolperisone with food. The wash-out period between study periods was at least seven days.
24 healthy male subjects were planned to participate in the study. […] The study group was composed of healthy male Caucasians, aged between 18-50 years, with a body mass index of 19-28 kg/m^2.
Tolperisone, 2-methyl-1-(4-methylphenyl)-3-(1-piperidinyl)-1-propanone, was supplied in coated tablets of 150 mg (“SPH-3047”, Sanochemia Pharmazeutica AG).
The dosage regimen was a four-way crossover. Within four treatment sequences, each subject received each of the following doses once.
Procedures from Day 1 until Day 3 were as follows (time points are detailed in the tabular schedule of trial procedures): • (i) An indwelling intravenous catheter was placed for blood sampling (without using heparin). • (ii) The study drug was administered (either 150, 300, or 450 mg of tolperisone) with 200 ml non-carbonated water in a standing position in a fasting state (intake of a standard breakfast not earlier than 90 minutes after dosing). For the food effect investigation, subjects received 150 mg tolperisone after food intake. • (iii) 12-lead ECG was taken both pre-dose, and at about 2 h post-dose (+15 min); ECG recordings were performed approximately 15 minutes before blood sampling. […] 64 blood samples for the determination of tolperisone and its main metabolite were drawn at the following times: pre-dose and 0.25, 0.5, 0.75, 1.0, 1.25, 1.5, 2, 3, 4, 8, 12, 24, 36, 48, and 72 hours post-administration (16 samples at each treatment).
On Day 1, meals were identical for all four study periods, with the exception of the “fed” study period during which a standardized breakfast was served 30 min prior to dosing.
In the non-fasted study period subjects received a standardized breakfast 30 min prior to dosing. The breakfast was a high fat breakfast according to FDA recommendations and was composed of the following food items: 2 slices of toasted white bread with butter, 2 eggs fried in butter, 2 slices of bacon, 2 ounces (1 oz=28.35 g) of “hash-browns” (fried, shredded potatoes), and 8 ounces of whole milk.
Assessment of Pharmacokinetics: For pharmacokinetic analysis, 7 ml of blood were collected by using Sarstedt monovettes (Sarstedt Ltd., Leicester, UK) or Vacutainers (Becton Dickenson).
The samples were immediately stored in ice water and centrifuged within 30 min following the collection of blood (1500×g, 10 minutes) at +4° C. temperature. The plasma from each sample was divided into two equal aliquots (approx. 2×1.5 ml), which were each transferred to a polypropylene tube, and identified by a coded label. The plasma samples were then stored in a freezer at a temperature of at least −70° C. until time of analysis.

[2] = Pharmacokinetic profile of tolperisone after single and multi-dosing (150 mg regimen over 7 days) in healthy subjects under fasted and fed conditions; conditions: for AUC(0-t) / AUC(inf) / Cmax / t½ / λz / AUC(0-6): mean ± SD; for Tmax: median
Procedure: Dosing Regimen: Subjects in each cohort received tolperisone according to the following regimen.
Blood samples for the measurement of the plasma concentrations of tolperisone and metabolites M1 (4-hydroxymethyltolperisone) and M4 (4-carboxy-tolperisone) were collected at the times shown in Table 8.
Bioanalytical: Plasma concentrations of tolperisone and metabolites M1 and M4 were measured using a validated LC/MS/MS assay by Pharm-analyt Laboratory, Baden Austria. The limits of quantitation (LOQ) for tolperisone, Mi, and M4 in plasma were 0.2 ng/ML, and 0.01 μg/mL, respectively.
Pharmacokinetic Analyses: Pharmacokinetic parameters for tolperisone, M1, and M4 were calculated using non-compartmental analysis. Only plasma concentrations greater than or equal to the LOQ for the respective assay were used in the pharmacokinetic analyses. Actual blood sampling times were used in all pharmacokinetic analyses. […] All pharmacokinetic calculations were done using SAS® for Windows® Version 9.1.3.
The maximum plasma concentration (Cmax) and time to Cmax (Tmax) were taken directly from the data. The elimination rate constant, λz, was calculated as the negative of the slope of the terminal log-linear segment of the plasma concentration-time curve. The range of data to be used for each subject and treatment was determined by visual inspection of a semi-logarithmic plot of concentration versus time. Elimination half-life (t½) was calculated according to the following equation: [formula] Area under the curve to the final sample with a concentration greater than or equal to the LOQ [(AUC(0-t)] was calculated using the linear trapezoidal method and extrapolated to infinity [AUC(inf)] using: [formula] where Ctf is the final concentration≧LOQ.
The maximum plasma concentration (Cmax) and time to Cmax (Tmax) were taken directly from the data.
The maximum plasma concentration (Cmax) and time to Cmax (Tmax) were taken directly from the data. The elimination rate constant, λz, and half-life, t½, were calculated as described for the 0800 dose on Day 1 (above). Areas under the curve to the final sample with a concentration greater than or equal to the LOQ [(AUC(O-t)] and over the 6-hour dosing interval [AUC(0-6)] were calculated using the linear trapezoidal method.

[3] = Day 1 - 0800 Dose, Fasted, Females
[4] = Day 1 - 0800 Dose, Fasted, Males
[5] = Day 1 - 0800 Dose, Fasted, both sexes
[6] = Day 1 - 0800 Dose, Fed, Females
[7] = Day 1 - 0800 Dose, Fed, both sexes
[8] = Day 1, fed vs fasted, both sexes
[9] = Day 2 - 2200 Dose, Fasted, Females
[10] = Day 2 - 2200 Dose, Fasted, Males
[11] = Day 2 - 2200 Dose, Fasted, both sexes
[12] = Day 2 - 2200 Dose, Fed, Females
[13] = Day 2 - 2200 Dose, Fed, both sexes
[14] = Day 7 - 0800 Dose, Fasted, Females
[15] = Day 7 - 0800 Dose, Fasted, Males
[16] = Day 7 - 0800 Dose, Fasted, both sexes
[17] = Day 7 - 0800 Dose, Fed, Females
[18] = Day 7 - 0800 Dose, Fed, both sexes
[19] = Day 7 - 2200 Dose, Fasted, Females
[20] = Day 7 - 2200 Dose, Fasted, Males
[21] = Day 7 - 2200 Dose, Fasted, both sexes
[22] = Day 7 - 2200 Dose, Fed, Females
[23] = Day 7 - 2200 Dose, Fed, both sexes

SMILES: CC(CN1CCCCC1)C(=O)c1ccc(CO)cc1 (centres unmarked) [4-HM-Tolperisone, 4-hydroxymethyl-tolperisone]
- AUC0-oo ([1]; fasted state): 1.82 ± 1.09 ng·h/mL
- AUC0-tlast ([1]; fasted state): 1.20 ± 1.01 ng·h/mL
- Cmax ([1]; fasted state): 1.70 ± 1.66 ng/mL
- Tmax ([1]; fasted state): 0.68 h
- t1/2 ([1]; fasted state): 0.55 ± 0.21 h
- λz ([1]; fasted state): 1.45 ± 0.51 h⁻¹
- AUC0-oo ([1]; fed state (high fat breakfast)): 3.92 ± 2.37 ng·h/mL
- AUC0-tlast ([1]; fed state (high fat breakfast)): 2.69 ± 2.18 ng·h/mL
- Cmax ([1]; fed state (high fat breakfast)): 2.56 ± 3.04 ng/mL
- Tmax ([1]; fed state (high fat breakfast)): 1.40 ± 0.77 h
- t1/2 ([1]; fed state (high fat breakfast)): 1.19 ± 0.80 h
- λz ([1]; fed state (high fat breakfast)): 0.95 ± 0.90 h⁻¹
- Tmax ([1]; fed state (high fat breakfast), listed as 4-HM-tolperisone): 1.38 h
- AUC0-oo, geometric mean for the ratio 150 mg fed/150 mg fasted, point estimate ([1]; Fed/fasted, 150 mg): 1.95
- AUC0-tlast, geometric mean for the ratio 150 mg fed/150 mg fasted, point estimate ([1]; Fed/fasted, 150 mg): 2.27
- Cmax, geometric mean for the ratio 150 mg fed/150 mg fasted, point estimate ([1]; Fed/fasted, 150 mg): 1.23
- concentration in blood plasma eight hours after study drug administration ([1]; all studied doses (150, 300, and 450 mg)): below the limit of quantification
- AUC(0-t) [2, 3]: 3.98 ± 2.48 (3) h · ng/mL
- AUC(inf) [2, 3]: 4.10 ± 2.55 (3) h · ng/mL
- Cmax [2, 3]: 2.06 ± 1.44 (3) ng/mL
- t½ [2, 3]: 1.03 ± 0.090 (3) h
- λz [2, 3]: 0.6787 ± 0.0627 (3) h^−1
- Tmax [2, 3]: 1.00 (3) h
- AUC(0-t) [2, 4]: 3.49 ± 1.47 (7) h · ng/mL
- AUC(inf) [2, 4]: 3.60 ± 1.48 (7) h · ng/mL
- Cmax [2, 4]: 2.30 ± 1.50 (7) ng/mL
- t½ [2, 4]: 1.16 ± 0.18 (7) h
- λz [2, 4]: 0.6081 ± 0.0792 (7) h^−1
- Tmax [2, 4]: 0.75 (7) h
- AUC(0-t) [2, 5]: 3.63 ± 1.69 (10) h · ng/mL
- AUC(inf) [2, 5]: 3.75 ± 1.72 (10) h · ng/mL
- Cmax [2, 5]: 2.22 ± 1.40 (10) ng/mL
- t½ [2, 5]: 1.12 ± 0.17 (10) h
- λz [2, 5]: 0.6293 ± 0.0788 (10) h^−1
- Tmax [2, 5]: 0.88 (10) h
- AUC(0-t) [2, 6]: 8.23 ± 5.46 (4) h · ng/mL
- AUC(inf) [2, 6]: 8.64 ± 5.79 (4) h · ng/mL
- Cmax [2, 6]: 3.29 ± 2.36 (4) ng/mL
- t½ [2, 6]: 1.04 ± 0.12 (4) h
- λz [2, 6]: 0.6700 ± 0.0749 (4) h^−1
- Tmax [2, 6]: 2.00 (4) h
- AUC(0-t) ([2]; Day 1 - 0800 Dose, Fed, Males): 4.22 ± 1.08 (6) h · ng/mL
- AUC(inf) ([2]; Day 1 - 0800 Dose, Fed, Males): 4.31 ± 1.12 (6) h · ng/mL
- Cmax ([2]; Day 1 - 0800 Dose, Fed, Males): 3.07 ± 0.68 (6) ng/mL
- t½ ([2]; Day 1 - 0800 Dose, Fed, Males): 1.03 ± 0.09 (6) h
- λz ([2]; Day 1 - 0800 Dose, Fed, Males): 0.6791 ± 0.0554 (6) h^−1
- Tmax ([2]; Day 1 - 0800 Dose, Fed, Males): 0.88 (6) h
- AUC(0-t) [2, 7]: 5.82 ± 3.86 (10) h · ng/mL
- AUC(inf) [2, 7]: 6.05 ± 4.11 (10) h · ng/mL
- Cmax [2, 7]: 3.16 ± 1.46 (10) ng/mL
- t½ [2, 7]: 1.03 ± 0.10 (10) h
- λz [2, 7]: 0.6754 ± 0.0599 (10) h^−1
- Tmax [2, 7]: 1.00 (10) h
- increase in the mean value for AUC(inf) on administration with food [2, 8]: 61%
- increase in the mean value for Cmax on administration with food [2, 8]: 42%
- Cmax [2, 9]: 1.83 ± 0.70 (3) ng/mL
- Tmax [2, 9]: 0.75 (3) h
- Cmax [2, 10]: 1.08 ± 0.68 (7) ng/mL
- Tmax [2, 10]: 1.50 (7) h
- Cmax [2, 11]: 1.30 ± 0.74 (10) ng/mL
- Tmax [2, 11]: 1.25 (10) h
- Cmax [2, 12]: 2.23 ± 1.99 (4) ng/mL
- Tmax [2, 12]: 1.25 (4) h
- Cmax ([2]; Day 2 - 2200 Dose, Fed, Males): 1.24 ± 0.60 (6) ng/mL
- Tmax ([2]; Day 2 - 2200 Dose, Fed, Males): 1.00 (6) h
- Cmax [2, 13]: 1.64 ± 1.33 (10) ng/mL
- Tmax [2, 13]: 1.00 (10) h
- mean AUC(0-6) under fed conditions higher than fasted ([2]; Day 7, 0800 dose, both sexes): 12%
- mean Cmax under fed conditions lower than fasted ([2]; Day 7, 0800 dose, both sexes): 12%
- AUC(0-6) [2, 14]: 5.78 ± 2.18 (3) h · ng/mL
- Cmax [2, 14]: 3.79 ± 1.46 (3) ng/mL
- t½ [2, 14]: 1.04 ± 0.115 (3) h
- λz [2, 14]: 0.6728 ± 0.0705 (3) h^−1
- Tmax [2, 14]: 0.75 (3) h
- AUC(0-6) [2, 15]: 4.13 ± 2.37 (7) h · ng/mL
- Cmax [2, 15]: 2.42 ± 1.62 (7) ng/mL
- t½ [2, 15]: 1.23 ± 0.22 (7) h
- λz [2, 15]: 0.5766 ± 0.0978 (7) h^−1
- Tmax [2, 15]: 0.75 (7) h
- AUC(0-6) [2, 16]: 4.63 ± 2.33 (10) h · ng/mL
- Cmax [2, 16]: 2.83 ± 1.63 (10) ng/mL
- t½ [2, 16]: 1.18 ± 0.21 (10) h
- λz [2, 16]: 0.6054 ± 0.0982 (10) h^−1
- Tmax [2, 16]: 0.75 (10) h
- AUC(0-6) [2, 17]: 7.28 ± 4.43 (4) h · ng/mL
- Cmax [2, 17]: 3.67 ± 1.97 (4) ng/mL
- t½ [2, 17]: 1.08 ± 0.35 (2) h
- λz [2, 17]: 0.6783 ± 0.2222 (2) h^−1
- Tmax [2, 17]: 1.13 (4) h
- AUC(0-6) ([2]; Day 7 - 0800 Dose, Fed, Males): 3.82 ± 1.23 (6) h · ng/mL
- Cmax ([2]; Day 7 - 0800 Dose, Fed, Males): 1.70 ± 0.67 (6) ng/mL
- t½ ([2]; Day 7 - 0800 Dose, Fed, Males): 1.08 ± 0.32 (6) h
- λz ([2]; Day 7 - 0800 Dose, Fed, Males): 0.6791 ± 0.1380 (6) h^−1
- Tmax ([2]; Day 7 - 0800 Dose, Fed, Males): 1.00 (6) h
- AUC(0-6) [2, 18]: 5.20 ± 3.25 (10) h · ng/mL
- Cmax [2, 18]: 2.49 ± 1.61 (10) ng/mL
- t½ [2, 18]: 1.08 ± 0.31 (08) h
- λz [2, 18]: 0.6789 ± 0.1437 (08) h^−1
- Tmax [2, 18]: 1.00 (10) h
- Cmax [2, 19]: 3.43 ± 2.15 (3) ng/mL
- Tmax [2, 19]: 1.00 (3) h
- Cmax [2, 20]: 1.78 ± 1.23 (7) ng/mL
- Tmax [2, 20]: 1.03 (7) h
- Cmax [2, 21]: 2.27 ± 1.64 (10) ng/mL
- Tmax [2, 21]: 1.00 (10) h
- Cmax [2, 22]: 2.35 ± 1.97 (4) ng/mL
- Tmax [2, 22]: 1.25 (4) h
- Cmax ([2]; Day 7 - 2200 Dose, Fed, Males): 2.09 ± 1.33 (6) ng/mL
- Tmax ([2]; Day 7 - 2200 Dose, Fed, Males): 0.88 (6) h
- Cmax [2, 23]: 2.20 ± 1.51 (10) ng/mL
- Tmax [2, 23]: 1.00 (10) h
- accumulation (increase in Cmax over the seven days of dosing) ([2]; seven days of dosing, up to 150 mg three times daily): little or no accumulation
- mean elimination half-life ([2]; summary, not dependent on sex, food or duration of dosing): ~1.1 h
